Drawing on ChEMBL document CHEMBL1152560, “Substituted 2-arylbenzothiazoles as kinase inhibitors: hit-to-lead optimization” (Bioorg Med Chem, 2009), this text covers residual activity for three compounds.

The target in assay [1] is Casein kinase I isoform gamma-1 (Homo sapiens) (UniProt Q9HCP0). The experiment in a line: Residual activity of CK1gamma1 at 0.1 uM by microplate scintillation counting.
The target of assay [2] is Cyclin-dependent kinase 7/ cyclin H (Homo sapiens) (UniProt P51946+P50613). The experiment in a line: Residual activity of CDK7/CyclinH/MAT1 at 1 uM by microplate scintillation counting. It counts as protein-complex assay.
For assay [3], the target named is Interferon-induced, double-stranded RNA-activated protein kinase (Homo sapiens) (UniProt P19525). The experiment in a line: Residual activity of EIF2AK2 at 10 uM by microplate scintillation counting.
Interferon-induced, double-stranded RNA-activated protein kinase (Homo sapiens), sequence (P19525 whole entry): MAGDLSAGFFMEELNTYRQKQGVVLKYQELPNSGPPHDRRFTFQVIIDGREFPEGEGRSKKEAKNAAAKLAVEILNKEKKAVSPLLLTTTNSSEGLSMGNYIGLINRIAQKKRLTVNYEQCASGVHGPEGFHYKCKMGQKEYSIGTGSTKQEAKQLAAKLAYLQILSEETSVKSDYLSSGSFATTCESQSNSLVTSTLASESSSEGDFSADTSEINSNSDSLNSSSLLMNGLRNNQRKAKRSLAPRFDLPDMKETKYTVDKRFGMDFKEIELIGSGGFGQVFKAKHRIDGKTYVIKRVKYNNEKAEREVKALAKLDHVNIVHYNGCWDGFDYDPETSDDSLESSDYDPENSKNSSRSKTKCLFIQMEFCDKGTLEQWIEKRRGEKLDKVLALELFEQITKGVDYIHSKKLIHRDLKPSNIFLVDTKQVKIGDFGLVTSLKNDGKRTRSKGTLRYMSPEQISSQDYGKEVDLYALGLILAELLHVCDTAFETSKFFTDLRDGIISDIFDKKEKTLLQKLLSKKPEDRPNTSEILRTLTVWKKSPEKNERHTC
The target in assay [4] is T1, G protein-coupled receptor kinase 3 (Homo sapiens) (UniProt P35626).
T1 sequence (whole entry): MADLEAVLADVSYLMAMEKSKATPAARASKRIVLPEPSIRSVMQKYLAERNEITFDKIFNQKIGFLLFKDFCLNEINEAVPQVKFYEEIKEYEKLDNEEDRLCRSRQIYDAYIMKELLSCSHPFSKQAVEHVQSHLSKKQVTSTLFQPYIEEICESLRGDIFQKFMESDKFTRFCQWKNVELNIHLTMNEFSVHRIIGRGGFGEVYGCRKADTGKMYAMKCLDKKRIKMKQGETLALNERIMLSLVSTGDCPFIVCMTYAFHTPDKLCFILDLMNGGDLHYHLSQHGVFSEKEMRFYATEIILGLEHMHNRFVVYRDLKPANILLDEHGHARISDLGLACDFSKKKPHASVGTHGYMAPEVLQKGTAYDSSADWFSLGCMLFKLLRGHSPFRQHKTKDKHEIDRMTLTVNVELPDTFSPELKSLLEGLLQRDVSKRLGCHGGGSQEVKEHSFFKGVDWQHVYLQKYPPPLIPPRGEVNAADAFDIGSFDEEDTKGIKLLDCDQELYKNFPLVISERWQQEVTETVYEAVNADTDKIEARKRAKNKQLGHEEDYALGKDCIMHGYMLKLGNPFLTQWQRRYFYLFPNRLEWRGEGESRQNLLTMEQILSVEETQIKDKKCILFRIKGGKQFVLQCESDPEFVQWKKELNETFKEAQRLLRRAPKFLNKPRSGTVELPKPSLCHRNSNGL
The assay is described as follows: Residual activity of GRK3 at 0.1 uM by microplate scintillation counting.

Assay [5] has as its target Receptor-type tyrosine-protein kinase FLT3 (Homo sapiens) (UniProt P36888). The experiment in a line: Residual activity of wild type FLT3 at 10 uM by microplate scintillation counting.
Assay [6] concerns the target Protein kinase C alpha type (Homo sapiens) (UniProt P17252). The experiment in a line: Residual activity of PKCalpha at 1 uM by microplate scintillation counting.
The target in assay [7] is T2, Ephrin type-B receptor 3 (Homo sapiens) (UniProt P54753).
T2 sequence (whole entry): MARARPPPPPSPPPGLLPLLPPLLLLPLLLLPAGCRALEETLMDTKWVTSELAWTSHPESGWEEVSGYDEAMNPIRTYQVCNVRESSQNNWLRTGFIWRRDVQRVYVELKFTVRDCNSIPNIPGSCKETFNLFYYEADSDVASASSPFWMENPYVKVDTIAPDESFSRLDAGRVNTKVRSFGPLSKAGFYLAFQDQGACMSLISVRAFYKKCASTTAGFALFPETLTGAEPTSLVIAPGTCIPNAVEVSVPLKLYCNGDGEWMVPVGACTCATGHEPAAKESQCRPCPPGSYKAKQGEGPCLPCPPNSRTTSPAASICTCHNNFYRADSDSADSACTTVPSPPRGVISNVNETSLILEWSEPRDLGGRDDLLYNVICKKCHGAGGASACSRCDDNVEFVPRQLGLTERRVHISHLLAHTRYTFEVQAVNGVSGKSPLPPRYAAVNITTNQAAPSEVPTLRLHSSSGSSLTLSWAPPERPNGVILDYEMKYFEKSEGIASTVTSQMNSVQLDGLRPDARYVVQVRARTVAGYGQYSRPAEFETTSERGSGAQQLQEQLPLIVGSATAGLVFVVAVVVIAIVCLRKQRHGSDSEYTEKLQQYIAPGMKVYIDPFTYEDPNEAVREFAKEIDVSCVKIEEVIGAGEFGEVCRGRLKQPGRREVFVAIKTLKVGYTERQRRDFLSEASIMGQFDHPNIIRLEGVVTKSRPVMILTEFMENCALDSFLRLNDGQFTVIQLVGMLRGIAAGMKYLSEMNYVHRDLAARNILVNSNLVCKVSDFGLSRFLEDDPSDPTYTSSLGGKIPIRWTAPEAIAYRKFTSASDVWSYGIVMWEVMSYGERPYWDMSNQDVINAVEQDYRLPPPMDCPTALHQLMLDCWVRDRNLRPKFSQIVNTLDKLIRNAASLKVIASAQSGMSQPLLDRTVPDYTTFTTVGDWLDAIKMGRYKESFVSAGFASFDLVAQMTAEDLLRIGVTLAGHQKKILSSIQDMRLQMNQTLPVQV
The assay is described as follows: Residual activity of EPHB3 at 0.1 uM by microplate scintillation counting.

The test system of assay [8] is T3, Receptor-type tyrosine-protein kinase FLT3 (Homo sapiens), P36888 [D835Y].
T3 sequence (whole entry): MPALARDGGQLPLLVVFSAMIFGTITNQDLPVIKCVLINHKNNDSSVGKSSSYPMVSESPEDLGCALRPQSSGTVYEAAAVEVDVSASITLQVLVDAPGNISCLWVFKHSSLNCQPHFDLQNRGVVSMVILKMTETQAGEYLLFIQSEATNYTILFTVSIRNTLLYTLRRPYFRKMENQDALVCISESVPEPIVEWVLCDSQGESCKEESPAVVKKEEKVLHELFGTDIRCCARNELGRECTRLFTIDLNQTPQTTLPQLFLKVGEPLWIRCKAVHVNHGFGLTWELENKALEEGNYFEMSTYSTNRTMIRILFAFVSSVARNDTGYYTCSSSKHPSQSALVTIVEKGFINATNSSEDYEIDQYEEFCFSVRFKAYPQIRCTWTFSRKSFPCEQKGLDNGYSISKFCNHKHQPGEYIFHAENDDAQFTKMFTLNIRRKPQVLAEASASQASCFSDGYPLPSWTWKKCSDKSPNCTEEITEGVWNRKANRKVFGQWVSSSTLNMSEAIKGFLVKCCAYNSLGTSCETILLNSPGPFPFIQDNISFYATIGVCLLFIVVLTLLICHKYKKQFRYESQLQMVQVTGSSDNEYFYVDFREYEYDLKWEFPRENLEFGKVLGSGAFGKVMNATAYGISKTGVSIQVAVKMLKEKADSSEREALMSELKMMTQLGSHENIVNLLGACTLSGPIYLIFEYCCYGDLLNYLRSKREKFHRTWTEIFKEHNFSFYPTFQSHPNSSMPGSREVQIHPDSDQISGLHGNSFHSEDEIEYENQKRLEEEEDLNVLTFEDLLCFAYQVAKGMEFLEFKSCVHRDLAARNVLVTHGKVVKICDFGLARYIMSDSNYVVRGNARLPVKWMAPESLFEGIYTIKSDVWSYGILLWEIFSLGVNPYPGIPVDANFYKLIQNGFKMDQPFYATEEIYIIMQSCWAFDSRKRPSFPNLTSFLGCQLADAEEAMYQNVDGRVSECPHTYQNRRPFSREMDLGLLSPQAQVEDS
The experiment in a line: Residual activity of FLT3 D835Y mutant at 1 uM by microplate scintillation counting.

Casein kinase I isoform gamma-1 (Homo sapiens), sequence (Q9HCP0 whole entry, looked up, canonical isoform): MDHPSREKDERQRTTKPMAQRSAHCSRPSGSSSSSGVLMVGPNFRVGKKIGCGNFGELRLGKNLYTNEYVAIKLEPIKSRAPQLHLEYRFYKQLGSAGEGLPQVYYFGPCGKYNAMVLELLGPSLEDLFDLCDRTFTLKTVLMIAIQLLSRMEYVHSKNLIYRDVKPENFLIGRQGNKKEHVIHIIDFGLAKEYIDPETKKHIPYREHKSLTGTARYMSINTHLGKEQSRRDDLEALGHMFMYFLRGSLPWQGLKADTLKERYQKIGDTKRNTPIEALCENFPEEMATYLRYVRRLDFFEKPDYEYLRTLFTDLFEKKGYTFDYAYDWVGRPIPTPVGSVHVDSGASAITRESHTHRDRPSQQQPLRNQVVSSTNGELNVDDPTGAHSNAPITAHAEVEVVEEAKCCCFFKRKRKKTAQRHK

`COc1cc2c(Oc3ccc(-c4nc5ccccc5s4)cc3)ncnc2cc1OCCCN1CCCC1`: the residual activity in assay [1] came out at 84%; in assay [2], 77%; in assay [3] it was 27%; in assay [4], 86%; in assay [5] it was 42%; in assay [6], 128%. The residual activity in assay [7] came out at 102%; in assay [8], 90%.
Turning to `COc1cc2c(Oc3ccc(-c4nc5ccccc5s4)cc3F)ncnc2cc1OCCCN1CCN(C)CC1`, the residual activity in assay [1] was 100%; in assay [2] it was 87%; in assay [3], 28%; in assay [4], 95%; in assay [5], 6%; in assay [6] it was 98%. Further, the residual activity in assay [7] turned out to be 117%; in assay [8] it was 78%.
Turning to `COc1cc2c(Oc3ccc(-c4nc5ccccc5s4)cc3)ncnc2cc1OCCCN1CCN(C)CC1`, the residual activity in assay [1] amounted to 102%; in assay [2] it was 94%; in assay [3], 21%; in assay [4], 94%; in assay [5], 13%; in assay [6], 99%. Further, the residual activity in assay [7] was determined as 112%; in assay [8], 95%.
